In patent publication US20240318143A1, “POST-PROCESSING OF BIOLOGICAL SCAFFOLDS” (Lung Biotechnology PBC, priority 2023, published 2024):

Test system: PAECs
Assay: PAEC attachment and morphology after 24 hours on discs surface modified with peptides (FIGS. 8A-10G, FIJI analysis)
Assay type: cell-based
Conditions: 24 hours after seeding, surface modification at 2 μmol/cm^2 and 0.2 μmol/cm^2 (Tests 1-3)
Experimental: For the experiments in FIGS. 7A-7S, 18 multi-wells were washed in 70% RA. The multi-wells were split into 6 groups of surface modification, which were P/G/A/B/F, PHSRNKRGD (SEQ ID NO: 9) (referred to as “PHK” in the figures), AG73, GFOGER (SEQ ID NO: 10), BM-Binder, and FN-Binder. Surface modification was conducted with the peptide solutions in Table 4. Peptides were prepared at 2 μmol/cm^2 concentrations for surface modification, but the actual concentration was adjusted for the thiol concentration. Following surface modification, wells were seeded with PAECs at a concentration of 625000 per cm^2. 24 hours after seeding, the wells were fix stained and imaged to quantify cell morphology. Model surface area was 10.1 cm^2.
FIGS. 8A-10G provide data on experiments to compare cell seeding and proliferation on surfaces with single peptide or combination peptide modification at different concentrations, 2 μmol/cm^2 and 0.2 μmol/cm^2. The solutions used for peptide modification had the actual peptide concentrations noted in Table 5.
(§1) FIGS. 8A-8G illustrate PAEC morphology after 24 hours on discs surface modified with various peptides at 2 μmol/cm^2 concentration according to Test 1. FIG. 8A are stained disk scans of PAECs cultured on 6 different surface modification peptides. FIGS. 8B-8G are graphs of FIJI analysis of circularity frequency distribution.
as §1, with “9A-9G” for “8A-8G”, “concentration adjusted to the volume used in the PGABF′ condition” for “concentration”, “2.” for “1.”, “9A” for “8A”, “9B-9G” for “8B-8G”
FIGS. 10A-10G illustrate PAEC morphology after 24 hours on discs surface modified with various peptides at 0.2 μmol/cm^2 concentration according to Test 3. FIG. 10A are stained disk scans of PAECs cultured on 6 different surface modification peptides. […] FIJI analysis is a method of quantifying stained disk scans. […]

| Sequence | Cell attachment and morphology |
| --- | --- |
| GCREISAFLGIPFAEPPMGPRRFLPPEPKKP [B] | little cell attachment and those that were attached were round with little to no elongation |
| GCREKKRKRLQVQLSIRT [A, laminin-derived peptide recognized by syndecans] | some cells that were elongated but that did not have full stretching as seen in other test conditions, and an increase in rounder cells |
| GCREKKTLQPVYEYMVGV [F] | little cell attachment and those that were attached were round with little to no elongation |
